Reference: patent US12410147B2, “Surfactants” (Imperial College Innovations Limited, priority 2020, dated 2025)

Tests used:
[1] = Solubility study in water (ISO standard 6839); type: physicochemical; conditions: for solubility in water (concentration solubilized): room temperature
Protocol: 10 ml of solution was poured into a 20 ml vial and allowed to cool until precipitation was observed. Other 10 ml of solution was poured into a 20 ml vial and kept at a higher temperature. The precipitated sample was slowly heated and the clear sample was slowly cooled. The temperature at which an appearance change occurred was considered the temperature of solubility at a specific surfactant concentration.

[2] = Resistance to hard water (ISO standard 1063); type: physicochemical; conditions: for appearance of the solutions in hard water stability tests (in words): all calcium concentrations; for Mean Stability: class from total score according to Table 3; for Total Score: sum of 15 appearance scores, CaCl2 6, 9 and 12 m equivalent Ca/L, five aliquots of 50 mg/ml mother solution
Protocol: These measurements were made according the standard protocol reported in ISO standard 1063. Calcium chloride was used as cation source at concentrations of 6, 9 and 12 m equivalent Ca/L (3.0, 4.5, 6.0 mM). A mother solution of surfactant with 50 mg/ml concentration was prepared in water at 20° C. In a 50 ml falcon-tube, a defined aliquot of mother solution was transferred and diluted up to 50 ml with the calcium solution. Five different aliquots of surfactant mother solution were tested: 5.0, 2.5, 1.2, 0.6 and 0.3 ml. In every test, the appearance of the sample was inspected and assigned a score according to Table 2. The scores of the 15 tests for each surfactant were summed and the final result was expressed as mean stability according to Table 3.
• Opalescent is a solution not clear but which objects can be seen. Cloudy is a solution not clear which objects cannot be seen through.

[3] = Critical micelle concentration, air-water-surfactant system, pendant drop method; type: physicochemical; conditions: 25° C., deionised water
Protocol: Concentrations that were evaluated for each surfactant varied depending on the solubility of the surfactant and the surface tension reduction observed during the analysis. The experiment was performed at 25° C. Deionised water (prepared using a Milli-Q system (Merck)) was used for each experiment. The pendant drop method was used to calculate the surface tension by using a Krüss DSA25. A drop of the solution was produced in the tip of a blunt metal needle (1.25 mm) until the drop reached its maximum size. After 10-15 seconds of equilibration, an image of the drop was captured using a digital camera. The drop was analyzed using the software Krüss EasyDrop Standard-Drop Shape Analysis (DSA1) v 1.92. The software uses the Young-Laplace equation to calculate the surface tension according to the drop deformation considering the effect of gravity and hydrostatic pressure. Critical micellar concentration (CMC) was obtained after plotting surface tension vs surfactant concentration. The CMC is calculated as the surfactant concentration where the initial straight line intersects the plateau in the graph.

[4] = Surface tension in octanol-water-surfactant system, drop volume method (ISO 9101 modified); type: physicochemical
Description: The drop volume method was used to calculate the surface tension in the system following the ISO standard 9101 with some modifications. In each experiment a drop of aqueous solution of surfactant was slowly formed in the tip of a needle (d=1.82 mm) submerged in octanol using a syringe connected at a Krüss DSA25 drop shape analyser instrument. The drop formation was allowed to grow as close as possible the maximum volume at which it would detach from the needle. At this point, the drop was left to stabilize for 2 minutes and then was detached from the needle by providing a small amount of additional solution. A photo of the drop leaving the needle was captured using the camera connected to the Krüss DSA25. The diameter of the drop was measured, and the surface tension was calculated using the following equation: […]
Where γ is the surface tension (mN/m), V is the drop volume (cm^3), Δρ is the difference of density between water and octanol (g/cm^3), g is the acceleration due to gravity (cm/s^2), d is the outer diameter of the needle (cm), and f is a correction factor calculated using the following equation: […]
Surface tension at concentration 2 times the CMC in deionised water (prepared using a Milli-Q system (Merck)) are summarized in Table 6. […] In FIG. 2 the drops formation of a water/surfactant solution in octanol have been reported for the SAF-8, SAF-12 and SDBS at a concentration of surfactant double of the CMC. The SAF-8 show the lower surface tension due mostly to the high concentration of surfactant used ([…]).
SAF-8 was evaluated using a concentration 2 times the CMC, while SAF-12 was evaluated at 2, 4 and 8 times the CMC.

[5] = Foaming capacity (ISO 6964 with modifications); type: physicochemical; conditions: 0.2% surfactant, 50° C., after 5 minutes; for Foam height, hard water: 200 ppm CaCl2
Protocol: Foaming capacity was evaluated following the protocol set out in ISO 6964, with some modifications. In each test, 700 mL of surfactant solution containing 0.2% surfactant was prepared using deionized water or a hard water solution of distilled water with 200 ppm of CaCl2. The solutions were prepared by agitating the components for 60 minutes at 50° C. After 60 minutes, 50 mL of solution was poured in a 1000 mL glass measuring cylinder, which was then placed in a water bath that was heated to 50° C. 600 mL of the surfactant solution was poured into a chromatography column fitted with a stainless-steel needle at the egress. The column was placed over the measuring cylinder so that the tip of the needle was […] from the surfactant solution in the measuring cylinder. 450 mL of surfactant solution were poured from the column into the measuring cylinder. After pouring the solution, foam height was measured at 30 sec, 3 min, 5 min and 15 min.

[6] = tested on: E. coli in expressing the b-galactosidase; type: cell-based; conditions: 37° C., 30 min, OD 600 nm
Protocol: The toxicity of different surfactants was analysed using a Toxi-Chromo test kit supplied by EBPI to quantify the inhibition of E. coli in expressing the b-galactosidase in the presence of the surfactants. Using the standard protocol, a mother solution containing 1000 ppm of a surfactant was prepared. The bacteria inoculum was mixed with a reaction mixture, nutrients supplied with the kit and the toxicant. A further 15 samples at containing different amounts of the surfactant were prepared in the well plate through subsequent dilutions. The chromogen supplied with the kit was added in each well and the well plate was then incubated at 37° C. for 30 min. The optical density (OD) was read at 600 nm using a plate reader. The % inhibition was measured by the OD variation (which is associated a blue colour development). EC50 was measured by plotting and fitting the % inhibition and surfactant concentration.

[7] = tested on: protozoa microorganisms; type: cell-based; conditions: 30° C., 24 h, OD 440 nm
Protocol: The toxicity of different surfactants was analysed using a Protoxkit supplied by microbiotests quantify the inhibition of growth of protozoa microorganisms in the presence of the surfactants. Using the standard protocol, a dilution series of toxicant was prepared by serial 1:1 dilution with distilled water. 2 mL of each solution is placed in a UV cuvette. An inoculum of Protozoa was diluted to reach an OD of 0.04 at 440 nm then 40 μL of inoculum was added along a solution of 40 μL of nutrients in each dilution vials. The initial OD was measured for each vial and the vial was then incubated at 30° C. for 24 h. Inhibition was measured by the comparing the variation of initial and final OD.

[8] = tested on: zein protein; assay: Zein solubilisation study; conditions: 2 g zein, 40 ml of 0.5 wt % surfactant solution, 40° C., 12 h
Protocol: The applicability of surfactants in personal care products was studied by analysing their capacity to solubilise zein protein. In each test 2 g of zein protein was mixed with 40 ml of 0.5 wt % surfactant solution and the mixture was incubated at 40° C. for 12 h. The mixture was then centrifuged and the remaining solid zein was washed with 50 mL of water 5 times. The solid zein was dried for in an oven at 70° C. for 5 days and weighted. The zein solubilisation was evaluated as percentage of zein that was dissolved into the surfactant solution.

[9] = surfactant concentration 12.5 % weight in water
[10] = surfactant concentration 15 % weight in water
[11] = surfactant concentration 17.5 % weight in water
[12] = surfactant concentration 20 % weight in water
[13] = surfactant concentration 22.5 % weight in water
[14] = deionised water in octanol, concentration 2 times the CMC
[15] = hard water (500 ppm CaCl2) in octanol, 2 times the CMC

Compound | solubility in water (concentration solubilized) [1] | temperature at which dissolution was observed [1, 9] | temperature at which dissolution was observed [1, 10] | temperature at which dissolution was observed [1, 11] | temperature at which dissolution was observed [1, 12] | temperature at which dissolution was observed [1, 13] [°C] | appearance of the solutions in hard water stability tests (in words) [2] | Mean Stability [2] | Total Score [2] | CMC [3] [ppm] | Surface tension [4, 14] [mN/m] | Surface tension [4, 15] [mN/m] | Foam height, hard water [5] [mm] | Foam height, distilled water [5] [mm] | EC50, inhibition of E. coli in expressing the b-galactosidase [6] [ppm] | EC50, inhibition of growth of protozoa microorganisms [7] [ppm] | % of zein dissolved [8] [%] | other results
CCCCCCCCOC(=O)c1ccc(S(=O)(=O)O)o1 [SAF-8, Sulfonated Octyl Furoate] | up to 140% | <0 °C | <0 °C | <0 °C | <0 °C | <0 | remained clear | 5 (75) | 75 | 1330 | 2.65 | 1.91 ± 0.25 | 5 ± 0.5 | 2.5 ± 0.7 | 292 ± 13 | 673 ± 10 | 10.4 ± 0.98 | –
CCCCCCCCCCCCOC(=O)c1ccc(S(=O)(=O)O)o1 [SAF-12, Sulfonated Dodecyl Furoate] | – | 20-25 °C | 20-25 °C | 20-25 °C | 20-25 °C | <0 | remained clear | 5 (75) | 75 | 521 | 3.42 | 4.51 ± 0.5 | 10.35 ± 0.5 | 7.8 ± 0.4 | 63.5 ± 2.8 | 49.65 ± 5 | 15.3 ± 0.26 | temperature below which the surfactant would precipitate ([1]; 20% solution): below 20 °C; solubility in water (concentration soluble) ([1]; 24° C.): 20%; Surface tension ([4]; hard water (500 ppm CaCl2) in octanol, 4 times the CMC): 3.78 ± 0.45 mN/m; Surface tension ([4]; hard water (500 ppm CaCl2) in octanol, 8 times the CMC): 1.99 ± 0.27 mN/m
CCCCCCCCCCCCCCCCOC(=O)c1ccc(S(=O)(=O)O)o1 [SAF-16, Sulfonated Hexadecyl Furoate] | 0.05% | >50 °C | >50 °C | >50 °C | >50 °C | >50 | – | – | – | 60 | – | – | – | – | – | – | – | solubility in water (in words) ([1]; comparison of surfactants): very low solubility
CCCCCCCCCCCCOS(=O)(=O)[O-].[Na+] [SDS, sodium dodecyl sulfate, reference compound] | – | – | – | – | – | – | extensive precipitation in many tests | 2 (19-37) | 21 | – | 1.34 ± 0.28 | – | 4.25 ± 0.4 | 7.25 ± 0.4 | 123.7 ± 5.2 | 85.71 ± 3.8 | – | behaviour in hard water (in words) ([4]; hard water (500 ppm CaCl2)): significant agglomeration
